Assay results as given in patent publication US20040087030A1, “Method for the regeneration of cotton” (priority 1998, published 2004).

Tests used:
Assay type in all cases: cell-based, cotton (Coker 312)
cotton embryos = experiment: Embryo germination on germination media with varying carbohydrate concentration
Procedure: The preparation of Agrobacterium, seed sterilization, seed germination, inoculation, co-culture, and selection were performed as described in Example 1. Embryos were induced as outlined in Examples 2, 3, and 4. After eight weeks, the embryogenic tissue that formed was transferred to an embryo maturation media as described in Examples 5 and 6. Cultures were monitored for the presence of actively growing embryos.
About every four weeks, actively growing tissue and small embryos were removed and placed on fresh maturation media. The embryos were spaced on the culture plates with adequate room for growth. The tissue was returned to the warm room and incubated under the same growth conditions.
Embryos larger than about 5 mm were transferred to a germination media (Stewart and Hsu, Planta 137:113-117, […]) with various carbohydrate concentrations and 0.25 g/L GELRITE. The embryos are incubated at 28° C. in a lighted incubator with a 16/8 day/night cycle.
Various concentrations of glucose and sucrose in the germination media were tested. The germination media comprised sucrose or glucose at concentrations ranging from about 0%-2% (w/v).

embryogenic cotton calli = experiment: Embryogenic callus formation on induction media with ethylene inhibitors; conditions: 40 calli tested
Procedure: The transgenic calli were removed from the hypocotyls and transferred to a culture containing hormone-free media comprising the following components per liter: 4.4 g MS salts with B5 vitamins; 30 g glucose, pH 5.8; an antioxidant, such as ascorbic acid (10-100 mg); an ethylene inhibitor, such as aminoethoxyvinylglycine at approximately 5 μM; GELRITE or PHYTAGEL (2-3 g); and selective agents as described above. This culture was maintained at 28° C. under conditions of dark or limited lighting. The dark or limited lighting conditions were accomplished using a black bag, a covering of aluminum foil, or by incubating in a dark growth chamber. Alternatively, the transgenic calli may be incubated under green light. The incubation is continued for about eight to ten weeks.
In two separate experiments, the ethylene inhibitors AVG (aminoethoxy-vinylglycine), DNP (2,4-dinitrophenol), and salicylic acid were tested to determine their influence on the induction of embryogenic cotton calli.

[1] = test system: transgenic cotton calli (Coker 312); experiment: Induction of embryogenesis in transgenic cotton callus on induction media with antioxidant (ascorbic acid)
Procedure: […] This culture was maintained at 28° C. under conditions of dark or limited lighting. The dark or limited lighting conditions were accomplished using a black bag, a covering of aluminum foil, or by incubating in a dark growth chamber. Alternatively, the transgenic calli may be incubated under green light. The incubation is continued for about eight to ten weeks.

[2] = 0.1% carbohydrate in germination media
[3] = 0.5% carbohydrate in germination media
[4] = 1% carbohydrate in germination media
[5] = 2% carbohydrate in germination media
[6] = pMON20956 vector, ascorbic acid 100 mg/L

In the case of `OC[C@H]1O[C@@](CO)(O[C@H]2O[C@H](CO)[C@@H](O)[C@H](O)[C@H]2O)[C@@H](O)[C@@H]1O` [sucrose], the “# Plantlets with Expanded Leaves” value (cotton embryos; [2]) is reported as 7, the “Transformation Frequency” value (cotton embryos; [2]) is reported as 47% and the “# Plantlets with Expanded Leaves” value (cotton embryos; [3]) is reported as 10. For the same molecule, the “Transformation Frequency” value (cotton embryos; [3]) was 43%, the “# Plantlets with Expanded Leaves” value (cotton embryos; [4]) was 6 and the “Transformation Frequency” value (cotton embryos; [4]) was 27%. The “# Plantlets with Expanded Leaves” value (cotton embryos; [5]) was 5, the “Transformation Frequency” value (cotton embryos; [5]) was 28% and the “effect on frequency of embryo germination and plantlet formation” value (cotton embryos; concentrations ranging from about 0% to 0.5% (w/v) in germination media) was “significantly increased the frequency of embryo germination and plantlet formation”.

For `O=[N+]([O-])c1ccc(O)c([N+](=O)[O-])c1` [DNP, 2,4-dinitrophenol], the “Embryogenic Calli Formed” value (embryogenic cotton calli; Expt 1 pMON10517, 1 μM) was 17, the “Frequency of Formation” value (embryogenic cotton calli; Expt 1 pMON10517, 1 μM) was 43% and the “Embryogenic Calli Formed” value (embryogenic cotton calli; Expt 2 pMON10079, 1 μM) was 16. For the same molecule, the “Frequency of Formation” value (embryogenic cotton calli; Expt 2 pMON10079, 1 μM) was 40%.

For `O=C1O[C@H]([C@@H](O)CO)C(O)=C1O` [Ascorbic Acid, ascorbic acid], the “effect on frequency of embryogenesis” value ([1]; Coker 312, two independent experiments) was “increase the frequency of embryogenesis”, the “% Embryogenic Calli Transfer 1” value [1, 6] was 3% and the “% Embryogenic Calli Transfer 2” value [1, 6] was 31%. For the same molecule, the “Total Frequency of Embryogenesis” value [1, 6] was 34%.

With `O=C(O)c1ccccc1O` [salicylic acid] the “Embryogenic Calli Formed” value (embryogenic cotton calli; Expt 1 pMON10517, 50 μM) was 12, the “Frequency of Formation” value (embryogenic cotton calli; Expt 1 pMON10517, 50 μM) was 30% and the “Embryogenic Calli Formed” value (embryogenic cotton calli; Expt 2 pMON10079, 50 μM) was 17. The “Frequency of Formation” value (embryogenic cotton calli; Expt 2 pMON10079, 50 μM) was 43%.
